{"source": "PubChem BioAssay (NCI)", "assay_in_all_cases": "NCI-60 cell line screen, 48 h", "key": {"786-0 renal": {"test_system": "786-0 renal"}, "A549 NSCLC": {"test_system": "A549 NSCLC"}, "ACHN renal": {"test_system": "ACHN renal"}, "CAKI-1 renal": {"test_system": "CAKI-1 renal"}, "CCRF-CEM leukemia": {"test_system": "CCRF-CEM leukemia"}, "COLO 205 colon": {"test_system": "COLO 205 colon"}, "DLD-1 colon": {"test_system": "DLD-1 colon"}, "DMS 114 small cell lung": {"test_system": "DMS 114 small cell lung"}, "DMS 273 small cell lung": {"test_system": "DMS 273 small cell lung"}, "EKVX NSCLC": {"test_system": "EKVX NSCLC"}, "HCT-116 colon": {"test_system": "HCT-116 colon"}, "HCT-15 colon": {"test_system": "HCT-15 colon"}, "HL-60(TB) leukemia": {"test_system": "HL-60(TB) leukemia"}, "HOP-18 NSCLC": {"test_system": "HOP-18 NSCLC"}, "HOP-62 NSCLC": {"test_system": "HOP-62 NSCLC"}, "HOP-92 NSCLC": {"test_system": "HOP-92 NSCLC"}, "HT29 colon": {"test_system": "HT29 colon"}, "IGROV1 ovarian": {"test_system": "IGROV1 ovarian"}, "K-562 leukemia": {"test_system": "K-562 leukemia"}, "KM12 colon": {"test_system": "KM12 colon"}, "KM20L2 colon": {"test_system": "KM20L2 colon"}, "LOX IMVI melanoma": {"test_system": "LOX IMVI melanoma"}, "LXFL 529 NSCLC": {"test_system": "LXFL 529 NSCLC"}, "M14 melanoma": {"test_system": "M14 melanoma"}, "M19-MEL melanoma": {"test_system": "M19-MEL melanoma"}, "MALME-3M melanoma": {"test_system": "MALME-3M melanoma"}, "MOLT-4 leukemia": {"test_system": "MOLT-4 leukemia"}, "NCI-H226 lung": {"test_system": "NCI-H226 lung"}, "NCI-H23 lung": {"test_system": "NCI-H23 lung"}, "NCI-H460 lung": {"test_system": "NCI-H460 lung"}, "OVCAR-3 ovarian": {"test_system": "OVCAR-3 ovarian"}, "OVCAR-4 ovarian": {"test_system": "OVCAR-4 ovarian"}, "OVCAR-8 ovarian": {"test_system": "OVCAR-8 ovarian"}, "RPMI-8226 leukemia": {"test_system": "RPMI-8226 leukemia"}, "RXF 393 renal": {"test_system": "RXF 393 renal"}, "SF-268 CNS": {"test_system": "SF-268 CNS"}, "SF-295 CNS": {"test_system": "SF-295 CNS"}, "SF-539 CNS": {"test_system": "SF-539 CNS"}, "SK-MEL-2 melanoma": {"test_system": "SK-MEL-2 melanoma"}, "SK-MEL-28 melanoma": {"test_system": "SK-MEL-28 melanoma"}, "SK-MEL-5 melanoma": {"test_system": "SK-MEL-5 melanoma"}, "SK-OV-3 ovarian": {"test_system": "SK-OV-3 ovarian"}, "SN12C renal": {"test_system": "SN12C renal"}, "SNB-19 CNS": {"test_system": "SNB-19 CNS"}, "SNB-75 CNS": {"test_system": "SNB-75 CNS"}, "SNB-78 CNS": {"test_system": "SNB-78 CNS"}, "SR leukemia": {"test_system": "SR leukemia"}, "SW-620 colon": {"test_system": "SW-620 colon"}, "TK-10 renal": {"test_system": "TK-10 renal"}, "U251 CNS": {"test_system": "U251 CNS"}, "UACC-257 melanoma": {"test_system": "UACC-257 melanoma"}, "UACC-62 melanoma": {"test_system": "UACC-62 melanoma"}, "UO-31 renal": {"test_system": "UO-31 renal"}, "XF 498 CNS": {"test_system": "XF 498 CNS"}}, "note": "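Briefly, cells in 96-well plates were exposed to five compound concentrations for 48 h, and endpoints were estimated by linear interpolation. TGI marks complete inhibition of growth.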"}
{"smiles": "FC(F)(F)c1nc(-c2ccccc2Cl)[nH]c1C(F)(F)F", "values": [{"measurement": "TGI", "setting": "786-0 renal", "value": 4.73, "unit": "µM"}, {"measurement": "TGI", "setting": "A549 NSCLC", "value": 3.06, "unit": "µM"}, {"measurement": "TGI", "setting": "ACHN renal", "value": 2.65, "unit": "µM"}, {"measurement": "TGI", "setting": "CAKI-1 renal", "value": 1.65, "unit": "µM"}, {"measurement": "TGI", "setting": "CCRF-CEM leukemia", "value": 1.6, "unit": "µM"}, {"measurement": "TGI", "setting": "COLO 205 colon", "value": 0.971, "unit": "µM"}, {"measurement": "TGI", "setting": "DLD-1 colon", "value": "> 29.5", "unit": "µM"}, {"measurement": "TGI", "setting": "DMS 114 small cell lung", "value": 1.9, "unit": "µM"}, {"measurement": "TGI", "setting": "DMS 273 small cell lung", "value": 3.03, "unit": "µM"}, {"measurement": "TGI", "setting": "EKVX NSCLC", "value": 2.25, "unit": "µM"}, {"measurement": "TGI", "setting": "HCT-116 colon", "value": 2.15, "unit": "µM"}, {"measurement": "TGI", "setting": "HCT-15 colon", "value": 3.52, "unit": "µM"}, {"measurement": "TGI", "setting": "HL-60(TB) leukemia", "value": 1.22, "unit": "µM"}, {"measurement": "TGI", "setting": "HOP-18 NSCLC", "value": 2.6, "unit": "µM"}, {"measurement": "TGI", "setting": "HOP-62 NSCLC", "value": 1.35, "unit": "µM"}, {"measurement": "TGI", "setting": "HOP-92 NSCLC", "value": 1.22, "unit": "µM"}, {"measurement": "TGI", "setting": "HT29 colon", "value": 4.22, "unit": "µM"}, {"measurement": "TGI", "setting": "IGROV1 ovarian", "value": 8.97, "unit": "µM"}, {"measurement": "TGI", "setting": "K-562 leukemia", "value": 4.29, "unit": "µM"}, {"measurement": "TGI", "setting": "KM12 colon", "value": 4.13, "unit": "µM"}, {"measurement": "TGI", "setting": "KM20L2 colon", "value": 3.44, "unit": "µM"}, {"measurement": "TGI", "setting": "LOX IMVI melanoma", "value": 1.23, "unit": "µM"}, {"measurement": "TGI", "setting": "LXFL 529 NSCLC", "value": 3.73, "unit": "µM"}, {"measurement": "TGI", "setting": "M14 melanoma", "value": 4.83, "unit": "µM"}, {"measurement": "TGI", "setting": "M19-MEL melanoma", "value": 3.77, "unit": "µM"}, {"measurement": "TGI", "setting": "MALME-3M melanoma", "value": 2.75, "unit": "µM"}, {"measurement": "TGI", "setting": "MOLT-4 leukemia", "value": "> 29.5", "unit": "µM"}, {"measurement": "TGI", "setting": "NCI-H226 lung", "value": 3.54, "unit": "µM"}, {"measurement": "TGI", "setting": "NCI-H23 lung", "value": 2.03, "unit": "µM"}, {"measurement": "TGI", "setting": "NCI-H460 lung", "value": 4.17, "unit": "µM"}, {"measurement": "TGI", "setting": "OVCAR-3 ovarian", "value": 3.68, "unit": "µM"}, {"measurement": "TGI", "setting": "OVCAR-4 ovarian", "value": 22.1, "unit": "µM"}, {"measurement": "TGI", "setting": "OVCAR-8 ovarian", "value": 6.14, "unit": "µM"}, {"measurement": "TGI", "setting": "RPMI-8226 leukemia", "value": 25.2, "unit": "µM"}, {"measurement": "TGI", "setting": "RXF 393 renal", "value": 2.69, "unit": "µM"}, {"measurement": "TGI", "setting": "SF-268 CNS", "value": "> 29.5", "unit": "µM"}, {"measurement": "TGI", "setting": "SF-295 CNS", "value": 2.03, "unit": "µM"}, {"measurement": "TGI", "setting": "SF-539 CNS", "value": 4.48, "unit": "µM"}, {"measurement": "TGI", "setting": "SK-MEL-2 melanoma", "value": 1.4, "unit": "µM"}, {"measurement": "TGI", "setting": "SK-MEL-28 melanoma", "value": 5.32, "unit": "µM"}, {"measurement": "TGI", "setting": "SK-MEL-5 melanoma", "value": 0.833, "unit": "µM"}, {"measurement": "TGI", "setting": "SK-OV-3 ovarian", "value": 2.45, "unit": "µM"}, {"measurement": "TGI", "setting": "SN12C renal", "value": 3.14, "unit": "µM"}, {"measurement": "TGI", "setting": "SNB-19 CNS", "value": 8.27, "unit": "µM"}, {"measurement": "TGI", "setting": "SNB-75 CNS", "value": 5, "unit": "µM"}, {"measurement": "TGI", "setting": "SNB-78 CNS", "value": "> 29.5", "unit": "µM"}, {"measurement": "TGI", "setting": "SR leukemia", "value": 1.68, "unit": "µM"}, {"measurement": "TGI", "setting": "SW-620 colon", "value": 6.63, "unit": "µM"}, {"measurement": "TGI", "setting": "TK-10 renal", "value": 14.5, "unit": "µM"}, {"measurement": "TGI", "setting": "U251 CNS", "value": 3.08, "unit": "µM"}, {"measurement": "TGI", "setting": "UACC-257 melanoma", "value": 2.2, "unit": "µM"}, {"measurement": "TGI", "setting": "UACC-62 melanoma", "value": 3.8, "unit": "µM"}, {"measurement": "TGI", "setting": "UO-31 renal", "value": 2.15, "unit": "µM"}, {"measurement": "TGI", "setting": "XF 498 CNS", "value": 1.54, "unit": "µM"}]}
